Literature values, collected in US8722101B2, “Use of iron(III) complex compounds” (Vifor (International) AG, priority 2005, dated 2014).

Details: children with iron-related anaemia; administration for 75 days

O=S(=O)([O-])[O-].[Fe+2] [iron sulfate]
improvement in the mental and psychomotor development: did not find any improvement
